# The OPERA property sets (Mansouri et al. 2018)
row,Structure (SMILES),logP
1,Nc1ccc(S(=O)(=O)c2ccc([N+](=O)[O-])cc2)cc1,2.04
2,Nc1ccc(S(=O)(=O)c2ccc(Cl)cc2Cl)cc1,3.12
3,Nc1ccc(S(=O)(=O)c2ccc(N)cc2N)cc1,0.38
4,Nc1ccc(S(=O)(=O)c2ccc(NO)cc2)cc1,0.88
5,COc1ccc(S(=O)(=O)c2ccc(N)cc2)c(OC)c1,1.64
6,NC(=O)c1ccc(S(=O)(=O)c2ccc(N)cc2)cc1,0.9
7,CN(C)c1ccc(S(=O)(=O)c2ccc(N)cc2)cc1,1.99
8,Cc1ccc(S(=O)(=O)c2ccc(N)cc2)cc1,2.4
9,Nc1ccc(S(=O)(=O)c2ccc([N+](=O)[O-])cc2[N+](=O)[O-])cc1,1.84
10,CC(=O)c1ccc(S(=O)(=O)c2ccc(N)cc2)cc1,1.67
11,Cc1ccc(S(=O)(=O)c2ccc(N)cc2)c(C)c1,2.71
12,CCN(CC)c1ccc(S(=O)(=O)c2ccc(N)cc2)cc1,3
13,Cc1cc(C)c(S(=O)(=O)c2ccc(N)cc2)c(C)c1,3.06
14,Nc1ccc(S(=O)(=O)c2ccccc2N)cc1,1.56
15,COc1cc(OC)c(S(=O)(=O)c2ccc(N)cc2)c(OC)c1,1.03
16,CCNc1ccc(S(=O)(=O)c2ccc(N)cc2)cc1,1.98
17,Nc1ccc(S(=O)(=O)c2ccccc2)cc1,1.76
18,Nc1ccc(S(=O)(=O)c2ccc(O)cc2)cc1,1.57
19,Nc1ccc(S(=O)(=O)c2cccc(N)c2)cc1,1.03
20,COc1ccc(S(=O)(=O)c2ccc(N)cc2)cc1,1.96
21,CCN(CC)C(=O)c1ccc(S(=O)(=O)c2ccc(N)cc2)cc1,1.44
22,COC(=O)c1ccc(S(=O)(=O)c2ccc(N)cc2)cc1,2.13
23,Nc1ccc(S(=O)(=O)c2ccc(O)cc2O)cc1,1.29
24,Nc1ccc(S(=O)(=O)c2ccc(Cl)cc2)cc1,2.57
25,N#Cc1ccc(S(=O)(=O)c2ccc(N)cc2)cc1,1.63
26,Nc1ccc(S(=O)(=O)c2ccc(Br)cc2)cc1,2.85
